# Measured values taken from BigSolDB 2.1.
smiles,measurement,setting,value
CCCCCCCCCCCCCCCCCC(=O)OCCO,solubility (mole fraction),"in 1,1,1-trichloroethane, 287.65 K",0.0097
same,solubility (mole fraction),"in 1,1,1-trichloroethane, 290.45 K",0.0147
same,solubility (mole fraction),"in 1,1,1-trichloroethane, 293.65 K",0.0227
same,solubility (mole fraction),"in 1,1,1-trichloroethane, 295.75 K",0.0339
same,solubility (mole fraction),"in 1,1,1-trichloroethane, 298.55 K",0.0504
same,solubility (mole fraction),"in 1,1,1-trichloroethane, 300.95 K",0.0723
same,solubility (mole fraction),"in 1,1,1-trichloroethane, 304.25 K",0.108
same,solubility (mole fraction),"in 1,1,1-trichloroethane, 307.75 K",0.164
same,solubility (mole fraction),"in 1,1,1-trichloroethane, 311.65 K",0.239
same,solubility (mole fraction),"in 1,1,1-trichloroethane, 314.45 K",0.348
same,solubility (mole fraction),"in 1,1,2-trichlorotrifluoroethane, 290.45 K",0.0013
same,solubility (mole fraction),"in 1,1,2-trichlorotrifluoroethane, 295.55 K",0.0029
same,solubility (mole fraction),"in 1,1,2-trichlorotrifluoroethane, 303.45 K",0.0077
same,solubility (mole fraction),"in 1,1,2-trichlorotrifluoroethane, 303.65 K",0.0087
same,solubility (mole fraction),"in 1,1,2-trichlorotrifluoroethane, 306.05 K",0.0124
same,solubility (mole fraction),"in 1,1,2-trichlorotrifluoroethane, 308.05 K",0.0192
same,solubility (mole fraction),"in 1,1,2-trichlorotrifluoroethane, 309.85 K",0.0307
same,solubility (mole fraction),"in 1,1,2-trichlorotrifluoroethane, 311.45 K",0.049
same,solubility (mole fraction),"in 1,1,2-trichlorotrifluoroethane, 312.65 K",0.0769
same,solubility (mole fraction),"in 1,1,2-trichlorotrifluoroethane, 314.15 K",0.128
same,solubility (mole fraction),"in 1,1,2-trichlorotrifluoroethane, 316.75 K",0.276
same,solubility (mole fraction),"in cyclohexane, 282.05 K",0.0007
same,solubility (mole fraction),"in cyclohexane, 288.35 K",0.0015
same,solubility (mole fraction),"in cyclohexane, 294.65 K",0.0033
same,solubility (mole fraction),"in cyclohexane, 298.15 K",0.0067
same,solubility (mole fraction),"in cyclohexane, 299.15 K",0.0088
same,solubility (mole fraction),"in cyclohexane, 300.25 K",0.0128
same,solubility (mole fraction),"in cyclohexane, 300.85 K",0.0135
same,solubility (mole fraction),"in cyclohexane, 302.25 K",0.0199
same,solubility (mole fraction),"in cyclohexane, 303.85 K",0.314
same,solubility (mole fraction),"in cyclohexane, 305.45 K",0.0499
same,solubility (mole fraction),"in cyclohexane, 307.15 K",0.0774
same,solubility (mole fraction),"in cyclohexane, 309.35 K",0.129
same,solubility (mole fraction),"in cyclohexane, 312.46 K",0.208
same,solubility (mole fraction),"in cyclohexane, 315.56 K",0.303
same,solubility (mole fraction),"in ethyl acetate, 297.45 K",0.0118
same,solubility (mole fraction),"in ethyl acetate, 298.35 K",0.016
same,solubility (mole fraction),"in ethyl acetate, 299.15 K",0.0204
same,solubility (mole fraction),"in ethyl acetate, 299.75 K",0.0248
same,solubility (mole fraction),"in ethyl acetate, 300.95 K",0.0332
same,solubility (mole fraction),"in ethyl acetate, 302.15 K",0.0433
same,solubility (mole fraction),"in ethyl acetate, 305.05 K",0.065
same,solubility (mole fraction),"in ethyl acetate, 306.05 K",0.0868
same,solubility (mole fraction),"in ethyl acetate, 308.75 K",0.125
same,solubility (mole fraction),"in ethyl acetate, 312.75 K",0.233
same,solubility (mole fraction),"in n-butyl acetate, 294.45 K",0.0094
same,solubility (mole fraction),"in n-butyl acetate, 295.35 K",0.0174
same,solubility (mole fraction),"in n-butyl acetate, 297.45 K",0.0304
same,solubility (mole fraction),"in n-butyl acetate, 298.65 K",0.0507
same,solubility (mole fraction),"in n-butyl acetate, 302.65 K",0.0761
same,solubility (mole fraction),"in n-butyl acetate, 306.75 K",0.129
same,solubility (mole fraction),"in n-butyl acetate, 313.15 K",0.267
same,solubility (mole fraction),"in n-hexyl acetate, 293.95 K",0.0267
same,solubility (mole fraction),"in n-hexyl acetate, 299.35 K",0.0423
same,solubility (mole fraction),"in n-hexyl acetate, 302.35 K",0.0633
same,solubility (mole fraction),"in n-hexyl acetate, 305.95 K",0.0919
same,solubility (mole fraction),"in n-hexyl acetate, 308.15 K",0.128
same,solubility (mole fraction),"in n-hexyl acetate, 309.75 K",0.158
same,solubility (mole fraction),"in n-hexyl acetate, 311.65 K",0.202
same,solubility (mole fraction),"in n-hexyl acetate, 313.73 K",0.256
same,solubility (mole fraction),"in n-hexyl acetate, 317.15 K",0.339
same,solubility (mole fraction),"in n-hexyl acetate, 320.05 K",0.464
same,solubility (mole fraction),"in n-hexyl acetate, 332.85 K",0.631
same,solubility (mole fraction),"in n-pentyl acetate, 294.95 K",0.0324
same,solubility (mole fraction),"in n-pentyl acetate, 298.95 K",0.0453
same,solubility (mole fraction),"in n-pentyl acetate, 300.85 K",0.168
same,solubility (mole fraction),"in n-pentyl acetate, 301.75 K",0.0655
same,solubility (mole fraction),"in n-pentyl acetate, 303.75 K",0.0897
same,solubility (mole fraction),"in n-pentyl acetate, 305.75 K",0.121
same,solubility (mole fraction),"in n-pentyl acetate, 311.95 K",0.232
same,solubility (mole fraction),"in n-pentyl acetate, 314.95 K",0.316
same,solubility (mole fraction),"in n-pentyl acetate, 318.45 K",0.447
same,solubility (mole fraction),"in n-pentyl acetate, 322.85 K",0.657
same,solubility (mole fraction),"in n-propyl acetate, 297.75 K",0.0357
same,solubility (mole fraction),"in n-propyl acetate, 299.95 K",0.0493
same,solubility (mole fraction),"in n-propyl acetate, 302.15 K",0.0655
same,solubility (mole fraction),"in n-propyl acetate, 304.35 K",0.0992
same,solubility (mole fraction),"in n-propyl acetate, 306.45 K",0.137
same,solubility (mole fraction),"in n-propyl acetate, 308.75 K",0.174
same,solubility (mole fraction),"in n-propyl acetate, 311.85 K",0.228
same,solubility (mole fraction),"in n-propyl acetate, 314.95 K",0.315
same,solubility (mole fraction),"in n-propyl acetate, 317.85 K",0.405
same,solubility (mole fraction),"in n-propyl acetate, 322.15 K",0.566
